Here are results for 4 compounds from article PMC6033897, “Characterization and Validation of a Human 3D Cardiac Microtissue for the Assessment of Changes in Cardiac Pathology” (Scientific Reports, 2018).

Counter-ions that a name gives are not always drawn. Where only a bound is given, the exact number is not on record here.

For series [1], the system named is cardiac microtissues. Nature of the series: Cellular viability (ATP depletion, CellTiter-Glo) in cardiac microtissues. The class given is cell-based, human. To be noted: Homo sapiens, cardiac microtissues, read-out: Cellular viability (ATP depletion) IC50. The procedure:
(§1) Cellular ATP concentrations were assessed using the CellTiter-Glo® Luminescent Cell Viability Assay as per the manufacturer’s instructions (Promega); for cardiac microtissues 40 µl media was removed prior to the addition of 40 µl CellTiter-Glo® reagent. […] Data from the same treatment on minimum of 3 occasions were averaged to represent the mean ATP measurement.
On the technique in general: ATP-based viability assays read luminescence as a measure of living cells.

For series [2], the system named is cardiac microtissues. Put plainly: ER integrity (ER-Tracker blue imaging) in cardiac microtissues. The class given is cell-based, human. As to conditions: Homo sapiens; cardiac microtissues, 72 hours, geometric mean; read-out: ER integrity IC50. The procedure: (§2) Cardiac microtissues were stained with fluorescent probes in cell culture media, 40 µl media was removed and 40 µl of 2x multiplexed dye was added back to the well for 30 minutes at 37 °C, 5% CO2. Fluorescent probes used were ER-Tracker blue (2 µM) to measure endoplasmic reticulum (ER) integrity and TMRE (500 nM) to measure mitochondrial membrane potential (ΔΨm). All microtissues were imaged on a Cell Voyager 7000 (YokogawaInc.) and images captured using a 20x objective (Olympus UPLSAPO 0.75 NA, 0.6 mm WD), with a 2 × 2 bin. Plates are imaged live, prior to use the stage temperature was set to 37 °C and CO2 level at 5%. […] Transmitted light images were acquired using a 100 W Halogen lamp as an illumination source. Images were captured over a 60 μm range in the Z-axis with a 5 μm interval between slices. Z-stack images were output as a maximal projection of multiple z-planes.
(§3) Maximum projection images were imported and analysed in the Columbus Platform (v2.7, Perkin Elmer Inc.).

In series [3] the test system is cardiac microtissues. Put plainly: Mitochondrial membrane potential (ΔΨm, TMRE imaging) in cardiac microtissues. The class given is cell-based, human. As to conditions: Homo sapiens; cardiac microtissues, 72 hours, geometric mean; read-out: Mitochondrial membrane potential (ΔΨm) IC50. The procedure:
as §2, §3

The subject of the next series is H9c2 cells. On the set-up: method as in PMID 18664550. To be noted: read-out: reported IC50 value in H9c2 cells; cited from earlier work.
The subject of a further series is hESC-CMs. As to conditions: read-out: reported IC50 value in hESC-CMs; cited from earlier work.
For series [4], the system named is cardiac microtissues. Put plainly: Therapeutic index (IC50 in cardiac microtissues divided by total Cmax). Type of series: cell-based, human.
Experimental: The outcome of a drug being either toxic or non-toxic is determined by exposure. Consequently, it is important to consider therapeutically relevant maximum total plasma concentrations (Cmax) when investigating drug-induced toxicity. We questioned whether this approach can detect changes in drug-induced cardiac structure at relevant therapeutic concentrations. […] The cardiac structural changes of compounds could be divided into four categories: (1) at least one parameter modulated at a concentration of within 10-times the Cmax, (2) at least one parameter modulated at a concentration of within 100-times the Cmax, (3) changes in cardiac structure occurred at concentrations of above 100-times the Cmax concentration, (4) the changes in cardiac structure was not detected in this approach (i.e. no IC50 value could be calculated).
Series [5] concerns hCMEC. Put plainly: ER integrity in 2D monoculture. The class given is cell-based. As to conditions: Homo sapiens. The procedure:
(§4) For 2D monoculture, hiPS-CM, hCMEC and hCF were cultured as described above and seeded in CellCarrier-384 Ultra microplates (Perkin Elmer, 6057300) at 5000, 2500 and 1750 cells/well respectively.
(§5) Monoculture cells were stained with fluorescent probes diluted in cell culture media, 25 µl media was removed and 25 µl of 2x multiplexed dye was added back to the well for 15 minutes at 37 °C, 5% CO2.

Series [6] relates to hiPS-CM. Put plainly: ER integrity in 2D monoculture. The class given is cell-based. As to conditions: Homo sapiens. The procedure: as §4, §5
Series [7] concerns hCMEC. Put plainly: Mitochondrial membrane potential (ΔΨm) in 2D monoculture. The class given is cell-based. To be noted: Homo sapiens. The procedure: as §4, §5
In series [8] the test system is hiPS-CM. The description is as above. Type of series: cell-based. To be noted: Homo sapiens. As for the experimental part: as §4, §5
For series [9], the system named is hCMEC. Nature of the series: Cellular viability (ATP depletion) in 2D monoculture. The class given is cell-based. To be noted: Homo sapiens. As for the experimental part:
as §4, §1

Series [10] deals with hiPS-CM. Described as above. The class given is cell-based. As to conditions: Homo sapiens. The procedure: as §4, §1
Series [11] deals with cardiac microtissues. Nature of the series: Histopathology (H&E, IHC, IF) of treated cardiac microtissues. The class given is cell-based, human. To be noted: 24 hours; sunitinib 100 µM; doxorubicin 0.1 and 30 µM (Fig. 2). As for the experimental part:
Microtissues were harvested from 384 well-plates and washed twice in 1x PBS (Sigma P7059) subsequent to fixation in 3.7% paraformaldehyde (PFA) (Sigma F1635) at 4 °C for one hour. The 3.7% PFA was then removed and replaced with two washes of 1x PBS. The PBS was removed and replaced with liquid HistoGel (Thermo Fisher HG-4000-012) and left on ice for 30 minutes to solidify. The HistoGel pellet was placed into a histological cassette and processed using an enclosed tissue processor overnight. The HistoGel was then embedded using paraffin wax.
The formalin fixed paraffin embedded (FFPE) blocks were then sectioned at each time point at three 50 µm step levels with 8 × serial sections per level at 3 µm. H&E staining was performed on microtissue sections using Mayer’s Haematoxylin using a standard automated protocol. Standard automated immunohistochemistry (IHC) and immunofluorescence (IF) protocols were used for primary antibody detection at different dilutions (Supplementary Table 3) on microtissue sections. Diaminobenzadine (DAB) (Roche Diagnostics 760–159) was used to visualise positive staining in single-plex staining and Alkaline Phosphatase Fast Red (Roche Diagnostics 760–160) with DAB were used in dual staining, with a haematoxylin counterstain. […] A minimum of 15 microtissues per time point/treatment were evaluated. […]

The conditions of series [12]: total Cmax, therapeutically relevant maximum total plasma concentration; source not given; cited from earlier work.
Series [13] has as its system hCF. Put plainly: ER integrity in 2D monoculture. As to conditions: Homo sapiens, read-out: ER integrity IC50.
Series [14] concerns hCF. Nature of the series: Cellular viability (ATP depletion) in 2D monoculture. As to conditions: Homo sapiens, read-out: Cellular viability (ATP depletion) IC50.
Series [15] relates to hCF. Put plainly: Mitochondrial membrane potential (ΔΨm) in 2D monoculture. As to conditions: Homo sapiens, read-out: Mitochondrial membrane potential (ΔΨm) IC50.
A further series deals with cardiac spheroids. Further details: method as in PMID 28765558. To be noted: alternative cardiac spheroids; cited from earlier work.

For `CNC(=O)c1cc(Oc2ccc(NC(=O)Nc3ccc(Cl)c(C(F)(F)F)c3)cc2)ccn1` [Sorafenib Tosylate], the half-inhibitory concentration (IC50) (as a rule, the concentration at which inhibition is half-maximal) with cardiac microtissues [1] (72 hours, geometric mean) was 8.72 µM; in the series with cardiac microtissues [2] it was 6.42 µM; in the series on cardiac microtissues [3], 8.22 µM; with H9c2 cells, 44.9 µM; in the series on hESC-CMs, 15.2 µM.
For `Cc1nc(Nc2ncc(C(=O)Nc3c(C)cccc3Cl)s2)cc(N2CCN(CCO)CC2)n1` [Dasatinib], the IC50 with cardiac microtissues [1] (72 hours, geometric mean) was 27.1 µM; in the series on cardiac microtissues [2], over 100 µM; in the series with cardiac microtissues [3], over 100 µM. For the same compound, in the series on cardiac microtissues [4], the “Therapeutic index (TI): lowest IC50 of ΔΨm, ER integrity or ATP depletion / total Cmax” value is listed as at most 100 times Cmax.
`CCN(CC)CCNC(=O)c1c(C)[nH]c(/C=C2\C(=O)Nc3ccc(F)cc32)c1C` [Sunitinib Malate]: the IC50 with cardiac microtissues [1] (24 hours) turned out to be 46.2 µM; with cardiac microtissues [1] (72 hours, geometric mean), 8.23 µM; with cardiac microtissues [2], 0.39 µM; in the series with cardiac microtissues [3] it was 2.58 µM; in the series on hCMEC [5] (24 hours), 2.96 µM; in the series on hCMEC [5] (72 hours), 12.7 µM. Also, the IC50 in the series with hiPS-CM [6] (24 hours) stood at 4.48 µM; with hiPS-CM [6] (72 hours), 2.63 µM; with hCMEC [7] (24 hours), 9.57 µM; in the series on hCMEC [7] (72 hours) it was 2.97 µM; in the series on hiPS-CM [8] (24 hours) it was 16.1 µM; in the series with hiPS-CM [8] (72 hours) it was 16.2 µM. Also, the IC50 in the series on hCMEC [9] (24 hours) amounted to 4.9 µM; in the series with hCMEC [9] (72 hours) it was 0.8 µM; in the series on hiPS-CM [10] (24 hours) it was 24.7 µM; with hiPS-CM [10] (72 hours), 27.1 µM; in the series with hCF [13] (24 h), 6.59 µM; in the series with hCF [13] (72 h), 0.37 µM. The IC50 in the series on hCF [14] (24 h) stood at 16.5 µM; with hCF [14] (72 h), 4 µM; in the series on hCF [15] (24 h) it was 17.8 µM; in the series on hCF [15] (72 h), 11.6 µM. Besides, the “Histopathological / morphological changes” value with cardiac microtissues [11] is “clear reduction in overall cellularity”. The maximum concentration (Cmax) (as a rule, the maximum level reached in the sampled fluid or tissue) in series [12] is 0.25 µM.
As for `COc1cccc2c1C(=O)c1c(O)c3c(c(O)c1C2=O)C[C@@](O)(C(=O)CO)C[C@@H]3O[C@H]1C[C@H](N)[C@H](O)[C@H](C)O1` [Doxorubicin HCl], the concentration for half-maximal inhibition (IC50) in the series with cardiac microtissues [1] (24 hours) was determined as 15.5 µM; in the series with cardiac microtissues [1] (72 hours, geometric mean) it was 0.83 µM; in the series with cardiac microtissues [2], 3.18 µM; with cardiac microtissues [3], 0.18 µM; in the series with hCMEC [5] (24 hours), 43.6 µM; with hCMEC [5] (72 hours) it was 31 µM. In addition, the half-inhibitory concentration (IC50) with hiPS-CM [6] (24 hours) is 10.5 µM; in the series with hiPS-CM [6] (72 hours) it was 76.5 µM; with hCMEC [7] (24 hours), over 50 µM; in the series on hCMEC [7] (72 hours) it was over 50 µM; in the series with hiPS-CM [8] (24 hours), 8.28 µM; with hiPS-CM [8] (72 hours) it was 16.9 µM. Moreover, the IC50 in the series on hCMEC [9] (24 hours) was 1.03 µM; with hCMEC [9] (72 hours), 0.1 µM; in the series with hiPS-CM [10] (24 hours) it was 9.26 µM; with hiPS-CM [10] (72 hours), 1.01 µM; in the series with hCF [13] (24 h) it was 6.39 µM; in the series on hCF [13] (72 h) it was 46.6 µM. For the same compound, the 50% inhibitory concentration (IC50) in the series with hCF [14] (24 h) was 0.62 µM; with hCF [14] (72 h), 0.11 µM; in the series with hCF [15] (24 h) it was over 50 µM; in the series with hCF [15] (72 h), over 50 µM. The “Concentration range with significant change in live/dead staining” value in the series on cardiac spheroids is 5 to 40 µM. The Cmax in series [12] was 15.3 µM.
